Assays:
Type in all cases: in vivo
[1] = system: common ragweed (AMBEL; Ambrosia artemisiifolia); assay: Test K pre-/postemergence, mixtures of Cpd. No. 20 with metribuzin or rimsulfuron
Text: (§1) This test evaluated the effect of mixtures of Cpd. No. 20 with metribuzin or rimsulfuron on several plant species. Seeds of plant species selected from corn (ZEAMD; Zea mays, cv. ‘Pioneer 1184’), soybean (GLXMA; Glycine max, cv. Pioneer 35T58), giant foxtail (SETFA; Setaria faberi), palmer amaranth (AMAPA; Amaranthus palmeri), common waterhemp (AMATU; Amaranthus rudis), mare's tail (ERICA; Conyza canadensis), and common ragweed (AMBEL; Ambrosia artemisiifolia) were planted in pots containing Tama Silt Loam soil and treated preemergence with a directed soil spray using test chemicals formulated in a non-phytotoxic solvent mixture which included a surfactant.
(§2) At the same time, plants selected from these crop and weed species were planted in pots containing Redi-Earth® planting medium (Scotts Company, 14111 Scottslawn Road, Marysville, Ohio 43041) comprising spaghnum peat moss, vermiculite, wetting agent and starter nutrients and treated postemergence with test chemicals formulated in the same manner. Plants ranged in height from 2 to 10 cm and were in the one- to two-leaf stage for the postemergence treatment. Treated plants and untreated controls were maintained in a greenhouse for approximately 14-21 d, after which time all treated plants were compared to untreated controls and visually evaluated for injury. Plant response ratings, summarized in Tables K1 to K4, are based on a 0 to 100 scale where 0 is no effect and 100 is complete control. A dash (-) response means no test result. Test results are presented as a mean of 4 reps.

[2] = system: common waterhemp (AMATU; Amaranthus rudis); assay: as above
Text: as §1, §2

[3] = system: corn (ZEAMD; Zea mays, cv. ‘Pioneer 1184’); assay: as above
Text: as §1, §2

[4] = system: giant foxtail (SETFA; Setaria faberi); assay: as above
Text: as §1, §2

[5] = system: mare's tail (ERICA; Conyza canadensis); assay: as above
Text: as §1, §2

[6] = system: palmer amaranth (AMAPA; Amaranthus palmeri); assay: as above
Text: as §1, §2

[7] = system: soybean (GLXMA; Glycine max, cv. Pioneer 35T58); assay: as above
Text: as §1, §2

[8] = system: corn (ZEAMD; Zea mays, cv. ‘Pioneer 1184’); assay: Test of Tables L1 to L3, postemergence, mixtures of Cpd. No. 20 with benoxacor, isoxadifen-ethyl, or cloquintocet-mexyl; settings: 31 g a.i./ha
Text: (§3) This test evaluated the effect of mixtures of Cpd. No. 20 with benoxacor, isoxadifen-ethyl, or cloquintocet-mexyl on several plant species. Seeds of plant species selected from corn (ZEAMD; Zea mays, cv. ‘Pioneer 1184’), soybean (GLXMA; Glycine max, cv. Pioneer 35T58), winter wheat (TRZAW; Triticum aetivum, cv. Arezzo), rice (ORYSS; Oryza sativa, cv. M202), and giant foxtail (SETFA; Setaria faberi) were planted in pots containing Redi-Earth® planting medium (Scotts Company, 14111 Scottslawn Road, Marysville, Ohio 43041) comprising spaghnum peat moss, vermiculite, wetting agent and starter nutrients and treated postemergence using test chemicals formulated in a non-phytotoxic solvent mixture which included a surfactant. Plants ranged in height from 7 to 10 cm and were in the one- to two-leaf stage for the postemergence treatment. Treated plants and untreated controls were maintained in a greenhouse for approximately 14 d, after which time all treated plants were compared to untreated controls and visually evaluated for injury. Plant response ratings, summarized in Tables L1 to L3, are based on a 0 to 100 scale where 0 is no effect and 100 is complete control. A dash (-) response means no test result. Test results are presented as a mean of 4 reps.

[9] = system: giant foxtail (SETFA; Setaria faberi); assay: as above; settings: 31 g a.i./ha
Text: as §3

[10] = system: rice (ORYSS; Oryza sativa, cv. M202); assay: as above; settings: 31 g a.i./ha
Text: as §3

[11] = system: soybean (GLXMA; Glycine max, cv. Pioneer 35T58); assay: as above; settings: 31 g a.i./ha
Text: as §3

[12] = system: winter wheat (TRZAW; Triticum aetivum, cv. Arezzo); assay: as above; settings: 31 g a.i./ha
Text: as §3

CSc1nnc(C(C)(C)C)c(=O)n1N [Metribuzin, metribuzin, reference compound]
AMBEL plant response rating, 0 to 100 scale ([1]; postemergence, 62 g a.i./ha): 55
AMBEL plant response rating, 0 to 100 scale ([1]; postemergence, 125 g a.i./ha): 62
AMBEL plant response rating, 0 to 100 scale ([1]; preemergence, 62 g a.i./ha): 40
AMBEL plant response rating, 0 to 100 scale ([1]; preemergence, 125 g a.i./ha): 100
AMATU plant response rating, 0 to 100 scale ([2]; postemergence, 62 g a.i./ha): 37
AMATU plant response rating, 0 to 100 scale ([2]; postemergence, 125 g a.i./ha): 82
AMATU plant response rating, 0 to 100 scale ([2]; preemergence, 62 g a.i./ha): 53
AMATU plant response rating, 0 to 100 scale ([2]; preemergence, 125 g a.i./ha): 86
ZEAMD plant response rating, 0 to 100 scale ([3]; postemergence, 62 g a.i./ha): 0
ZEAMD plant response rating, 0 to 100 scale ([3]; postemergence, 125 g a.i./ha): 10
ZEAMD plant response rating, 0 to 100 scale ([3]; preemergence, 62 g a.i./ha): 0
ZEAMD plant response rating, 0 to 100 scale ([3]; preemergence, 125 g a.i./ha): 0
SETFA plant response rating, 0 to 100 scale ([4]; postemergence, 62 g a.i./ha): 0
SETFA plant response rating, 0 to 100 scale ([4]; postemergence, 125 g a.i./ha): 10
SETFA plant response rating, 0 to 100 scale ([4]; preemergence, 62 g a.i./ha): 30
SETFA plant response rating, 0 to 100 scale ([4]; preemergence, 125 g a.i./ha): 80
ERICA plant response rating, 0 to 100 scale ([5]; postemergence, 62 g a.i./ha): 10
ERICA plant response rating, 0 to 100 scale ([5]; postemergence, 125 g a.i./ha): 13
ERICA plant response rating, 0 to 100 scale ([5]; preemergence, 62 g a.i./ha): 100
ERICA plant response rating, 0 to 100 scale ([5]; preemergence, 125 g a.i./ha): 100
AMAPA plant response rating, 0 to 100 scale ([6]; postemergence, 62 g a.i./ha): 35
AMAPA plant response rating, 0 to 100 scale ([6]; postemergence, 125 g a.i./ha): 47
AMAPA plant response rating, 0 to 100 scale ([6]; preemergence, 62 g a.i./ha): 78
AMAPA plant response rating, 0 to 100 scale ([6]; preemergence, 125 g a.i./ha): 70
GLXMA plant response rating, 0 to 100 scale ([7]; postemergence, 62 g a.i./ha): 33
GLXMA plant response rating, 0 to 100 scale ([7]; postemergence, 125 g a.i./ha): 53
GLXMA plant response rating, 0 to 100 scale ([7]; preemergence, 62 g a.i./ha): 0
GLXMA plant response rating, 0 to 100 scale ([7]; preemergence, 125 g a.i./ha): 0

CC1COc2ccccc2N1C(=O)C(Cl)Cl (stereo not drawn) [Benoxacor, benoxacor, reference compound]
ZEAMD plant response rating, 0 to 100 scale [8]: 0
SETFA plant response rating, 0 to 100 scale [9]: 0
ORYSS plant response rating, 0 to 100 scale [10]: 0
GLXMA plant response rating, 0 to 100 scale [11]: 0
TRZAW plant response rating, 0 to 100 scale [12]: 0
